In ChEMBL document CHEMBL3045192, “Medicinal chemistry of polycyclic cage compounds in drug discovery research” (Med Chem Res, 2008):
Activity calls are given as the source filed them. No cut-off for these calls is given here.

Legend:
Influenza A virus = experiment: Antiviral activity against Influenza A virus A2/Taiwan; assay type: functional, organism-based
Human alphaherpesvirus 2 = experiment: Antiviral activity against Human herpesvirus 2; assay type: functional, organism-based

NC1C2C3CC4C5CC(C42)C1(c1ccccc1)C53 (racemic)
Activity (Influenza A virus): Active
Activity (Human alphaherpesvirus 2): Active
